{"source": "patent US20100041089A1", "about": "“IMPROVED METHOD FOR DETECTING CHEMICAL […]” (priority 2006, published 2010)", "test_system": "yeast genes (expressed mRNA)", "assay": "DNA chip measurement of expressed mRNA of yeast genes after culture with a toxic chemical substance", "type": "cell-based, Saccharomyces cerevisiae S288C", "in_short": "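Each expression value is the mRNA level in chemical-treated yeast divided by that in untreated yeast, from Cy3/Cy5 fluorescence on a whole-genome chip. Log-phase S288C cells in YPD at 25° C had received a sublethal, growth-inhibiting dose for two hours. Intensity denotes control expression relative to the all-gene mean.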"}
{"smiles": "O=[N+]([O-])c1cc[n+]([O-])c2ccccc12", "note": "[(5), 4-Nitroquinoline-N-oxide]", "values": [{"measurement": "The level of expressed mRNA in the presence of chemical substance/The level of expressed mRNA in the absence of chemical substance", "setting": "yeast gene YAL053W, cultured two hours with substance", "value": 0.8}, {"measurement": "The level of expressed mRNA in the presence of chemical substance/The level of expressed mRNA in the absence of chemical substance", "setting": "yeast gene YBL048W, cultured two hours with substance", "value": 1.3}, {"measurement": "The level of expressed mRNA in the presence of chemical substance/The level of expressed mRNA in the absence of chemical substance", "setting": "yeast gene YBL107C, cultured two hours with substance", "value": 1.2}, {"measurement": "The level of expressed mRNA in the presence of chemical substance/The level of expressed mRNA in the absence of chemical substance", "setting": "yeast gene YDL072C, cultured two hours with substance", "value": 1.4}, {"measurement": "The level of expressed mRNA in the presence of chemical substance/The level of expressed mRNA in the absence of chemical substance", "setting": "yeast gene YDL204W, cultured two hours with substance", "value": 1.0}, {"measurement": "The level of expressed mRNA in the presence of chemical substance/The level of expressed mRNA in the absence of chemical substance", "setting": "yeast gene YDL222C, cultured two hours with substance", "value": 1.0}, {"measurement": "The level of expressed mRNA in the presence of chemical substance/The level of expressed mRNA in the absence of chemical substance", "setting": "yeast gene YDR003W, cultured two hours with substance", "value": 1.8}, {"measurement": "The level of expressed mRNA in the presence of chemical substance/The level of expressed mRNA in the absence of chemical substance", "setting": "yeast gene YDR330W, cultured two hours with substance", "value": 1.2}, {"measurement": "The level of expressed mRNA in the presence of chemical substance/The level of expressed mRNA in the absence of chemical substance", "setting": "yeast gene YDR357C, cultured two hours with substance", "value": 2.0}, {"measurement": "The level of expressed mRNA in the presence of chemical substance/The level of expressed mRNA in the absence of chemical substance", "setting": "yeast gene YDR391C, cultured two hours with substance", "value": 1.2}, {"measurement": "The level of expressed mRNA in the presence of chemical substance/The level of expressed mRNA in the absence of chemical substance", "setting": "yeast gene YDR411C, cultured two hours with substance", "value": 1.6}, {"measurement": "The level of expressed mRNA in the presence of chemical substance/The level of expressed mRNA in the absence of chemical substance", "setting": "yeast gene YDR511W, cultured two hours with substance", "value": 1.0}, {"measurement": "The level of expressed mRNA in the presence of chemical substance/The level of expressed mRNA in the absence of chemical substance", "setting": "yeast gene YDR531W, cultured two hours with substance", "value": 2.0}, {"measurement": "The level of expressed mRNA in the presence of chemical substance/The level of expressed mRNA in the absence of chemical substance", "setting": "yeast gene YDR539W, cultured two hours with substance", "value": 1.8}, {"measurement": "The level of expressed mRNA in the presence of chemical substance/The level of expressed mRNA in the absence of chemical substance", "setting": "yeast gene YDR545W, cultured two hours with substance", "value": 1.4}, {"measurement": "The level of expressed mRNA in the presence of chemical substance/The level of expressed mRNA in the absence of chemical substance", "setting": "yeast gene YEL001C, cultured two hours with substance", "value": 0.9}, {"measurement": "The level of expressed mRNA in the presence of chemical substance/The level of expressed mRNA in the absence of chemical substance", "setting": "yeast gene YER004W, cultured two hours with substance", "value": 1.5}, {"measurement": "The level of expressed mRNA in the presence of chemical substance/The level of expressed mRNA in the absence of chemical substance", "setting": "yeast gene YER035W, cultured two hours with substance", "value": 1.5}, {"measurement": "The level of expressed mRNA in the presence of chemical substance/The level of expressed mRNA in the absence of chemical substance", "setting": "yeast gene YER044C, cultured two hours with substance", "value": 1.8}, {"measurement": "The level of expressed mRNA in the presence of chemical substance/The level of expressed mRNA in the absence of chemical substance", "setting": "yeast gene YER079W, cultured two hours with substance", "value": 0.8}, {"measurement": "The level of expressed mRNA in the presence of chemical substance/The level of expressed mRNA in the absence of chemical substance", "setting": "yeast gene YER106W, cultured two hours with substance", "value": 1.6}, {"measurement": "The level of expressed mRNA in the presence of chemical substance/The level of expressed mRNA in the absence of chemical substance", "setting": "yeast gene YER158C, cultured two hours with substance", "value": 0.8}, {"measurement": "The level of expressed mRNA in the presence of chemical substance/The level of expressed mRNA in the absence of chemical substance", "setting": "yeast gene YER163C, cultured two hours with substance", "value": 0.8}, {"measurement": "The level of expressed mRNA in the presence of chemical substance/The level of expressed mRNA in the absence of chemical substance", "setting": "yeast gene YER175C, cultured two hours with substance", "value": 0.9}, {"measurement": "The level of expressed mRNA in the presence of chemical substance/The level of expressed mRNA in the absence of chemical substance", "setting": "yeast gene YFL006W, cultured two hours with substance", "value": 1.4}, {"measurement": "The level of expressed mRNA in the presence of chemical substance/The level of expressed mRNA in the absence of chemical substance", "setting": "yeast gene YFL010C, cultured two hours with substance", "value": 1.3}, {"measurement": "The level of expressed mRNA in the presence of chemical substance/The level of expressed mRNA in the absence of chemical substance", "setting": "yeast gene YFL024C, cultured two hours with substance", "value": 1.1}, {"measurement": "The level of expressed mRNA in the presence of chemical substance/The level of expressed mRNA in the absence of chemical substance", "setting": "yeast gene YFL032W, cultured two hours with substance", "value": 0.9}, {"measurement": "The level of expressed mRNA in the presence of chemical substance/The level of expressed mRNA in the absence of chemical substance", "setting": "yeast gene YGL037C, cultured two hours with substance", "value": 0.9}, {"measurement": "The level of expressed mRNA in the presence of chemical substance/The level of expressed mRNA in the absence of chemical substance", "setting": "yeast gene YGL047W, cultured two hours with substance", "value": 1.3}, {"measurement": "The level of expressed mRNA in the presence of chemical substance/The level of expressed mRNA in the absence of chemical substance", "setting": "yeast gene YGL053W, cultured two hours with substance", "value": 2.0}, {"measurement": "The level of expressed mRNA in the presence of chemical substance/The level of expressed mRNA in the absence of chemical substance", "setting": "yeast gene YGL121C, cultured two hours with substance", "value": 0.9}, {"measurement": "The level of expressed mRNA in the presence of chemical substance/The level of expressed mRNA in the absence of chemical substance", "setting": "yeast gene YGL199C, cultured two hours with substance", "value": 0.7}, {"measurement": "The level of expressed mRNA in the presence of chemical substance/The level of expressed mRNA in the absence of chemical substance", "setting": "yeast gene YGR101W, cultured two hours with substance", "value": 1.2}, {"measurement": "The level of expressed mRNA in the presence of chemical substance/The level of expressed mRNA in the absence of chemical substance", "setting": "yeast gene YGR110W, cultured two hours with substance", "value": 0.9}, {"measurement": "The level of expressed mRNA in the presence of chemical substance/The level of expressed mRNA in the absence of chemical substance", "setting": "yeast gene YGR130C, cultured two hours with substance", "value": 1.4}, {"measurement": "The level of expressed mRNA in the presence of chemical substance/The level of expressed mRNA in the absence of chemical substance", "setting": "yeast gene YGR154C, cultured two hours with substance", "value": 1.2}, {"measurement": "The level of expressed mRNA in the presence of chemical substance/The level of expressed mRNA in the absence of chemical substance", "setting": "yeast gene YGR221C, cultured two hours with substance", "value": 0.9}, {"measurement": "The level of expressed mRNA in the presence of chemical substance/The level of expressed mRNA in the absence of chemical substance", "setting": "yeast gene YHR053C (detoxification protein gene)", "value": 2.9}, {"measurement": "The level of expressed mRNA in the presence of chemical substance/The level of expressed mRNA in the absence of chemical substance", "setting": "yeast gene YHR055C (detoxification protein gene)", "value": 2.7}, {"measurement": "The level of expressed mRNA in the presence of chemical substance/The level of expressed mRNA in the absence of chemical substance", "setting": "yeast gene YHR136C", "value": 2.4}, {"measurement": "The level of expressed mRNA in the presence of chemical substance/The level of expressed mRNA in the absence of chemical substance", "setting": "yeast gene YHR138C, cultured two hours with substance", "value": 1.5}, {"measurement": "The level of expressed mRNA in the presence of chemical substance/The level of expressed mRNA in the absence of chemical substance", "setting": "yeast gene YHR199C, cultured two hours with substance", "value": 1.2}, {"measurement": "The level of expressed mRNA in the presence of chemical substance/The level of expressed mRNA in the absence of chemical substance", "setting": "yeast gene YHR209W, cultured two hours with substance", "value": 1.8}, {"measurement": "The level of expressed mRNA in the presence of chemical substance/The level of expressed mRNA in the absence of chemical substance", "setting": "yeast gene YIL023C, cultured two hours with substance", "value": 1.3}, {"measurement": "The level of expressed mRNA in the presence of chemical substance/The level of expressed mRNA in the absence of chemical substance", "setting": "yeast gene YIL041W, cultured two hours with substance", "value": 0.5}, {"measurement": "The level of expressed mRNA in the presence of chemical substance/The level of expressed mRNA in the absence of chemical substance", "setting": "yeast gene YIL087C, cultured two hours with substance", "value": 1.4}, {"measurement": "The level of expressed mRNA in the presence of chemical substance/The level of expressed mRNA in the absence of chemical substance", "setting": "yeast gene YJL057C, cultured two hours with substance", "value": 1.5}, {"measurement": "The level of expressed mRNA in the presence of chemical substance/The level of expressed mRNA in the absence of chemical substance", "setting": "yeast gene YJL066C, cultured two hours with substance", "value": 0.8}, {"measurement": "The level of expressed mRNA in the presence of chemical substance/The level of expressed mRNA in the absence of chemical substance", "setting": "yeast gene YJL082W, cultured two hours with substance", "value": 1.7}, {"measurement": "The level of expressed mRNA in the presence of chemical substance/The level of expressed mRNA in the absence of chemical substance", "setting": "yeast gene YJL151C, cultured two hours with substance", "value": 1.3}, {"measurement": "The level of expressed mRNA in the presence of chemical substance/The level of expressed mRNA in the absence of chemical substance", "setting": "yeast gene YJL152W, cultured two hours with substance", "value": 1.6}, {"measurement": "The level of expressed mRNA in the presence of chemical substance/The level of expressed mRNA in the absence of chemical substance", "setting": "yeast gene YJL161W, cultured two hours with substance", "value": 1.1}, {"measurement": "The level of expressed mRNA in the presence of chemical substance/The level of expressed mRNA in the absence of chemical substance", "setting": "yeast gene YJL171C, cultured two hours with substance", "value": 1.0}, {"measurement": "The level of expressed mRNA in the presence of chemical substance/The level of expressed mRNA in the absence of chemical substance", "setting": "yeast gene YJR008W, cultured two hours with substance", "value": 1.4}, {"measurement": "The level of expressed mRNA in the presence of chemical substance/The level of expressed mRNA in the absence of chemical substance", "setting": "yeast gene YJR054W, cultured two hours with substance", "value": 1.0}, {"measurement": "The level of expressed mRNA in the presence of chemical substance/The level of expressed mRNA in the absence of chemical substance", "setting": "yeast gene YKL071W, cultured two hours with substance", "value": 1.1}]}
